Test results from US5162304A, “Pharmaceutical compositions and methods for treatment and prophylaxis of cancer” (priority 1990, dated 1992).
Several values for one entry are separate records, joined by “and”; a condition that tells them apart may be missing. Identical values can stand only once.

Columns and labels:
[1] = tested on: Ehrlich's mouse ascites carcinoma cells; test: Test 3: growth of Ehrlich's mouse ascites carcinoma cells; assay type: cell-based; settings: for tumor growth suppressing effect: Ehrlich's cells; for activity at 10 µM: Mus musculus, Ehrlich, 120 h, 5-day treatment at 10 μM, read-out: growth suppressed to
Experimental: (§1) 14-methyl-1-pentadecanol and 18-methyl-1-nonadecanol were tested for tumor growth suppressing effects on three different tumor cell strains (Ehrlich's mouse ascites carcinoma cells, human lung carcinoma A549 cells and mouse neuroblastoma NAs-1 cells).
These isomonools suppressed the growth of Ehrlich's ascites carcinoma cells to 4.5×10^-3 and 1.5×10^-2, respectively, by 5-day treatment at 10 μM.

[2] = tested on: bladder mucous membrane; test: Test 10: pathological changes in bladder mucous membrane after BBN and sodium erythorbate; assay type: in vivo, male F344 rats; settings: 250 mg/kg in feed; for Number of animals with cancer / Number of animals with papilloma / Number of animals with papillary or tuberous hyperplasia: 28 observed; for Number of animals with cancer: unadministered 19 of 27; for Number of animals with papilloma: unadministered 20 of 27; for Number of animals with papillary or tuberous hyperplasia: unadministered 27 of 27; for Cancer, incidence: unadministered 70; for Papilloma, incidence: unadministered 74; for Papillary or tuberous hyperplasia, incidence: unadministered 100
Description: 5 groups of 6-week old male F344 rats were givn 0.05% (by weight. The definition is to be followed hereinafter) aqueous solution of N-butyl-N-(4-hydroxybutyl)nitrosoamine (BBN: bladder carcinogenic compound), as an initiator, by water supplying bottles for 4 weeks.

[3] = tested on: mouse neuroblastoma NAs-1 cells; test: Test 3: growth of mouse neuroblastoma NAs-1 cells; assay type: cell-based; settings: for tumor growth suppressing effect: NAs-1 cells; for growth suppressed to: treatment conditions not given
Experimental: as §1
The growth of mouse neuroblastoma NAs-1 cells was suppressed to 7.8×10^-3 and 6.5×10^-3, respectively.

[4] = tested on: human lung carcinoma A549 cells; test: Test 3: colony formation of human lung carcinoma A549 cells; assay type: cell-based; settings: for tumor growth suppressing effect: A549 cells; for activity at 10 µM: Homo sapiens, A549, 6-hour treatment at 10 μM, read-out: colony formation rate
Experimental: as §1
These isomonools suppressed the colony formation rate of human lung A549 cells to 2.2×10^-3 and 4.1×10^-3, respectively, by 6-hour treatment at 10 μM.

[5] = tested on: adenocarcinoma 755 cells; test: Test 2: tumor growth suppression in mice inoculated with adenocarcinoma 755 cells; assay type: in vivo, F1 mongrel mice of C57BL/6 and DBA/2; settings: s.c., 10 mg/kg/day for 5 days; 10 days after inoculation; control 6.5
Description: 6-week old F1 mongrel mice of C57BL/6 and DBA/2 were inoculated under back skin with 10^6 adenocarcinoma 755 cells. […] The animals were sacrificed 10 days after the inoculation with adenocarcinoma 755 cells, and the tumor was excised.

[6] = tested on: stomach carcinoma; test: Test 9: stomach carcinoma after MNNG; assay type: in vivo, male Wistar rats; settings: for Cause of death (per animal): 250 mg/kg feed orally; for Histological classification (per animal) / Borrmann's Classification (per animal): 250 mg/kg feed orally for 126 days after MNNG; for Borrmann's Classification (per animal): gross observation; for Survival time (per animal): 250 mg/kg feed, 337 = day of sacrifice
Experimental: 40 male Wistar rats (8-9-week old, body weight; 110 g) were given a drinking water containing 167 μg/ml of N-methyl-N'-nitro-N-nitrosoguanidine (MNNG: a carcinogenic compound) and a feed (dry pellets CE-2, produced by CLEA JAPAN) for 210 days.
The rats were allotted to 5 groups and treated as follows since the 211th day.
Administered group A: n=8. The compound A of the present invention (See below. The definition is to be followed hereinafter) was administered orally in an amount of 250 mg/kg feed for 126 consecutive days.
Administered group B: n=8. The compound B of the present invention was administered orally in an amount of 250 mg/kg feed for 126 consecutive days.
Administered group C: n=8. The compound C of the present invention was administered orally in an amount of 250 mg/kg feed for 126 consecutive days.
Administered group D: n=8. The compound D of the present invention was administered orally in an amount of 250 mg/kg feed for 126 consecutive days.
On the 337th day, the survining rats were sacrificed and the stomachs were (1) subjected to Borrmann's classification according to gross observation and (2) histologically observed (haematoxylin-eosin stain or ASAN stain), and then classified as follows.

[7] = tested on: Ehrlich's ascites cells; test: Test 6 and Comparing Test 2: uptake of bleomycin into Ehrlich's ascites cells; assay type: cell-based, mouse; settings: bleomycin 60 μg/ml + isomonool 0.05 μM
Experimental: The amount of bleomycin taken up into Ehrlich's ascites cells was determined as a function of time in the case where bleomycin (60 μg/ml) was used in combination with 14-methyl-1-pentadecanol (0.05 μM).

[8] = Carcinostatic, carcinostasis-reinforcing and carcinogenesis-preventing activities (general statement)
[9] = tested on: Ehrlich's ascites carcinoma cells; test: Test 1: survival of mice inoculated with Ehrlich's ascites carcinoma cells; assay type: in vivo, ddY mice; settings: i.p., 10 mg/kg/day for 5 days, from 24 hours after inoculation
Experimental: 5-week old ddY mice were intraperitoneally inoculated with 10^6 Ehrlich's ascites carcinoma cells. Since 24 hours later, 50 mg/ml suspension of a test compound in 0.25% (% by weight. The definition is to be followed hereinafter) solution of Pluronic F68 in physiological saline was intraperitoneally injected to 10 animals/group at a dose of 10 mg/kg/day for 5 days.

[10] = tested on: Ehrlich's mouse ascites carcinoma cells; test: Test 7 and Comparing Tests 3 and 4: survival of mice inoculated with Ehrlich's mouse ascites carcinoma cells; assay type: in vivo, male C57BL/6 mice; settings: bleomycin + isomonool; for Number of surviving mice: of 8
Experimental: 5-week old male C57BL/6 mice were intraperitoneally inoculated with 10^6 Ehrlich's mouse ascites carcinoma cells. Since 24 hours later, a 50 μg/ml solution of bleomycin in 0.25% HCO-60 solution in physiological saline, and a suspension containing 50 μg/ml of bleomycin and 5 μg/ml of 14-methyl-1-pentadecanol were intraperitoneally injected at a dose of 10 mg/kg·day and 11 mg/kg·day, respectively, to each 8 animals/group for 5 days. The survival time of the injected mice was then followed.

[11] = tested on: mammary cancer; test: Test 8: prevention of DMBA-induced mammary cancer; assay type: in vivo, female SD rats; settings: DMBA 5 mg/body, 20 weeks, unadministered 15/30
Experimental: 6-week old female SD rats (n=90) were treated as follows using 14-methyl-1-pentadecanol as a carcinogenesis-preventing agent.
Unadministered group: n=30. MF powder feed (ORIENTAL KOBO K.K.) was given as a basic feed.
Administered group A: n=30. A test feed was given continually (for 7 days). The feed was prepared by admixing the said carcinogenesis-preventing agent (after emulsified in Pluronic F-68) with the abovementioned basic feed in an amount of 50 mg/kg.
Administered group B: n=30. A test feed was given continually (for 7 days). The feed was prepared by admixing the said carcinogenesis-preventing agent (after emulsified in Pluronic F-68) with the abovementioned basic feed in an amount of 250 mg/kg.
After the aforementioned treatment, 5 mg/body of […] (DMBA: a carcinogenic compound) was administered by injecting subcutaneously in mammary gland 0.1 ml/body of a 50 mg/ml benzanthracene solution. Then, each of the aforementioned groups was given corresponding feed for 20 weeks.
After the completion of the treatment, the rats were sacrificed and observed for the occurrence of mammary cancer.

CC(C)CCCCCCCCCCCCCCCCCO [18-methyl-1-nonadecanol]
tumor growth suppressing effect [1]: effective | activity at 10 µM [1]: 1.5% | Number of animals with cancer [2]: 0 | Number of animals with papilloma [2]: 0 | Number of animals with papillary or tuberous hyperplasia [2]: 2 | Cancer, incidence [2]: 0% | Papilloma, incidence [2]: 0% | Papillary or tuberous hyperplasia, incidence [2]: 7% | tumor growth suppressing effect [3]: effective | growth suppressed to [3]: 6.5×10^-3 | tumor growth suppressing effect [4]: effective | activity at 10 µM [4]: 0.41%

CCC(C)CCCCCCCCCCCCCCCO (centres unmarked) [16-methyl-1-octadecanol]
mean tumor weight [5]: 2.3 g | Cause of death (per animal) [6]: dead in cage | Histological classification (per animal) [6]: I and 0 and I-II | Borrmann's Classification (per animal) [6]: 0 | Survival time (per animal) [6]: 301 days and 312 days and 337 days

CC(C)CCCCCCCCCCCCCO [14-methyl-1-pentadecanol]
Bleomycin uptake ([7]; 30 min): 0.13 μg/mg Ehrlich's cell | Bleomycin uptake ([7]; 60 min): 0.26 μg/mg Ehrlich's cell | Bleomycin uptake ([7]; 120 min): 0.39 μg/mg Ehrlich's cell | Bleomycin uptake ([7]; 180 min): 0.55 μg/mg Ehrlich's cell | Bleomycin uptake ([7]; Initial): 0 μg/mg Ehrlich's cell | tumor growth suppressing effect [1]: effective | activity at 10 µM [1]: 0.45% | carcinostatic, carcinostasis-reinforcing and carcinogenesis-preventing activities [8]: especially potent in activities | mean survival time after inoculation [9]: ≥ 60 days | Histological classification (per animal) [6]: I and 0 | Borrmann's Classification (per animal) [6]: 0 | Survival time (per animal) [6]: 337 days | tumor growth suppressing effect [3]: effective | growth suppressed to [3]: 7.8×10^-3 | mean survival time after inoculation ([10]; i.p., 11 mg/kg.day for 5 days (Test 7)): 54.3 days | Number of surviving mice ([10]; day 14): 8 | Number of surviving mice ([10]; day 15): 8 | Number of surviving mice ([10]; day 16): 8 | Number of surviving mice ([10]; day 17): 8 | Number of surviving mice ([10]; day 18): 8 | Number of surviving mice ([10]; day 19): 8 | Number of surviving mice ([10]; day 20): 8 | Number of surviving mice ([10]; day 23): 8 | Number of surviving mice ([10]; day 33): 8 | Number of surviving mice ([10]; day 41): 8 | Number of surviving mice ([10]; day 45): 6 | Number of surviving mice ([10]; day 52): 4 | Number of surviving mice ([10]; day 57): 4 | Number of surviving mice ([10]; day 60): 4 | tumor growth suppressing effect [4]: effective | activity at 10 µM [4]: 0.22% | Number of animals with mammary cancer/Number of tested animals ([11]; group A, 50 mg/kg in feed): 8/30 | Number of animals with mammary cancer/Number of tested animals ([11]; group B, 250 mg/kg in feed): 4/30

CCC(C)CCCCCCCCCCCCCO (centres unmarked) [14-methyl-1-hexadecanol]
Number of animals with cancer [2]: 0 | Number of animals with papilloma [2]: 0 | Number of animals with papillary or tuberous hyperplasia [2]: 0 | Cancer, incidence [2]: 0% | Papilloma, incidence [2]: 0% | Papillary or tuberous hyperplasia, incidence [2]: 0% | carcinostatic, carcinostasis-reinforcing and carcinogenesis-preventing activities [8]: especially potent in activities | mean survival time after inoculation [9]: 57.5 days | Histological classification (per animal) [6]: I and 0 | Borrmann's Classification (per animal) [6]: 0

CC(C)CCCCCCCCCCCCCCCO [16-methyl-1-heptadecanol]
Number of animals with cancer [2]: 0 | Number of animals with papilloma [2]: 0 | Number of animals with papillary or tuberous hyperplasia [2]: 1 | Cancer, incidence [2]: 0% | Papilloma, incidence [2]: 0% | Papillary or tuberous hyperplasia, incidence [2]: 4% | mean tumor weight [5]: 1.6 g | Cause of death (per animal) [6]: dead in cage | Histological classification (per animal) [6]: 0 and I-II | Borrmann's Classification (per animal) [6]: 0 | Survival time (per animal) [6]: 305 days and 337 days

CCCC(C)CCCCCCCCCCCCCO (centres unmarked) [14-methyl-1-heptadecanol]
Number of animals with cancer [2]: 0 | Number of animals with papilloma [2]: 0 | Number of animals with papillary or tuberous hyperplasia [2]: 0 | Cancer, incidence [2]: 0% | Papilloma, incidence [2]: 0% | Papillary or tuberous hyperplasia, incidence [2]: 0%
